Data reported in patent publication US5066585A, “Method of inhibiting fungus using novel antifungal compounds” (priority 1990, dated 1991).
In brackets after ≈: the same amount, converted by molar mass. Like-named read-outs stand apart in the source and are kept apart here.

How the values were obtained:
murine tumors = details: more active than adriamycin; cited from earlier work
Solubility = type: physicochemical
[1] = test system: Candida albicans, Aspergillus fumigatus, and Cladosporium spp. fungi; assay: TLC bioassay for the detection of the biological activity; type: cell-based; details: bands at Rf 0.48 and 0.72, CHCl3-MeOH 16:1
Method: The crude extract obtained from the mycelium was spotted on a TLC plate (5×20, […]) and developed (CHCl3 -MeOH, 16:1 v/v). The plate was then marked under UV and visible light for individual spots or regions. The spores of the agar slant culture of the test organism was suspended in 10 ml of sterile physiological saline. The growth medium containing agar was then shaken well with 50 ul of the above suspension (35-40° C.) and poured over the developed TLC plate uniformly and allowed to set. The plates were then placed in a moist chamber and incubated at 26° C. for 24 to 72 hours and the zone of inhibition was recorded for the respective spots of the plate. The test organisms were Candida albicans, Aspergillus fumigatus, and Cladosporium spp. fungi and the growth medium was potato dextrose agar (PDA, 39 g/l).

[2] = comparison compounds; cited from earlier work
fungi = details: comparison compounds from Streptomyces; cited from earlier work
Pseudomonas aeruginosa = assay: MIC against Pseudomonas aeruginosa; type: cell-based; details: bacterial strain, 100,000 CFU
Method: (§1) Known amounts of the purified substance were dissolved in DMSO and serial dilutions prepared in the same solvent. A 20 ul volume of each dilution was placed on the surface of Emmon's agar in petri-dishes seeded with various test strains of pathogenic and saprophytic fungi. The antibacterial activity was monitored using Muller-Hilton agar. The minimum inhibitory concentration (MIC) was determined by incorporating known amount of the DMSO dissolved purified substance into Emmon's liquid medium (same as stated earlier but devoid of agar) contained in test tubes. The tubes were inoculated with ca 2×10^3 CFU of the test organisms. The inoculated tubes were incubated at 26° C. and the results recorded after two to 5 days' depending upon the growth pattern of the test organisms (certain fungi grow faster than others). Tubes inoculated in an identical manner but devoid of the active substance served as controls.
(§2) Minimum inhibitory concentration of Spartanamycin-B against certain bacteria and fungi. (The substance was dissolved in DMSO, 20 ul of the solution was mixed with two ml of liquid Emmons medium containing ca 10,000 Colony forming Units of fungal test strains or 100,000 CFU's of bacterial test strains).

C. neoformans-N-3 = assay: MIC against C. neoformans-N-3, broth dilution; type: cell-based; details: N = encapsulated, mucoid strain with neurotropic tendencies, ca 10,000 CFU
Method: as §1, §2

C. quilliermondii = assay: MIC against C. quilliermondii, broth dilution; type: cell-based; details: fungus, ca 10,000 CFU, liquid Emmons medium, DMSO solution
Method: as §1, §2

Escherichia coli = assay: MIC against Escherichia coli; type: cell-based; details: bacterial strain, 100,000 CFU
Method: as §1, §2

R. glutinis = assay: MIC against R. glutinis, broth dilution; type: cell-based; details: fungus, ca 10,000 CFU, liquid Emmons medium
Method: as §1, §2

A. niger = assay: MIC against A. niger, broth dilution; type: cell-based; details: fungus, ca 10,000 CFU, liquid Emmons medium, DMSO solution
Method: as §1, §2

Cladosporium species = assay: MIC against Cladosporium species, broth dilution; type: cell-based; details: fungus, ca 10,000 CFU, liquid Emmons medium, DMSO solution
Method: as §1, §2

C. neoformans serotype-C = assay: MIC against C. neoformans serotype-C, broth dilution; type: cell-based; details: ca 10,000 CFU, liquid Emmons medium
Method: as §1, §2

C. neoformans-G-3 = assay: MIC against C. neoformans-G-3, broth dilution; type: cell-based; details: G = nonencapsulated, drypasty, highly virulent strain, ca 10,000 CFU
Method: as §1, §2

Candida albicans = assay: MIC against Candida albicans, broth dilution; type: cell-based; details: fungus, ca 10,000 CFU, liquid Emmons medium, DMSO solution
Method: as §1, §2

C. neoformans serotype-D = assay: MIC against C. neoformans serotype-D, broth dilution; type: cell-based; details: ca 10,000 CFU, liquid Emmons medium
Method: as §1, §2

[3] = test system: Cryptococcus neoformans-N-2; assay: MIC against Cryptococcus neoformans-N-2, broth dilution; type: cell-based; details: N = encapsulated, mucoid strain with neurotropic tendencies, ca 10,000 CFU
Method: as §1, §2

Rhodotorula rubra = assay: MIC against Rhodotorula rubra, broth dilution; type: cell-based; details: fungus, ca 10,000 CFU, liquid Emmons medium
Method: as §1, §2

Citrobacter species = assay: MIC against Citrobacter species; type: cell-based; details: bacterial strain, 100,000 CFU
Method: as §1, §2

Penicillium species = assay: MIC against Penicillium species, broth dilution; type: cell-based; details: fungus, ca 10,000 CFU, liquid Emmons medium, DMSO solution
Method: as §1, §2

Plebsiella pneumoniae = assay: MIC against Plebsiella pneumoniae; type: cell-based; details: bacterial strain, 100,000 CFU
Method: as §1, §2

A. flavus = assay: MIC against A. flavus, broth dilution; type: cell-based; details: fungus, ca 10,000 CFU, liquid Emmons medium, DMSO solution
Method: as §1, §2

Aspergillus fumigatus = assay: MIC against Aspergillus fumigatus, broth dilution; type: cell-based; details: fungus, ca 10,000 CFU, liquid Emmons medium, DMSO solution
Method: as §1, §2

[4] = stability on standing in 2N HCl; type: physicochemical; details: upon standing in 2N HCl
[5] = test system: Staphylococcus aureus ATCC 29213; assay: MIC against Staphylococcus aureus ATCC 29213; type: cell-based; details: bacterial strain, 100,000 CFU
Method: as §1, §2

S. aureus ATCC 25923 = assay: MIC against S. aureus ATCC 25923; type: cell-based; details: bacterial strain, 100,000 CFU
Method: as §1, §2

[6] = test system: S. aureus (multiple drug resistant); assay: MIC against S. aureus (multiple drug resistant); type: cell-based; details: bacterial strain, 100,000 CFU
Method: as §1, §2

[7] = hexane, cyclohexane, water and 2N HCl

CCN[C@H]1CO[C@@H](O[C@H]2[C@H](O[C@H]3C#C/C=C\C#C[C@]4(O)CC(=O)C(NC(=O)OC)=C3/C4=C\CSSSC)O[C@H](C)[C@@H](NO[C@H]3C[C@H](O)[C@H](SC(=O)c4c(C)c(I)c(O[C@@H]5O[C@@H](C)[C@H](O)[C@@H](OC)[C@H]5O)c(OC)c4OC)[C@@H](C)O3)[C@@H]2O)C[C@@H]1OC [Calicheamicin]
activity relative to adriamycin against murine tumors (murine tumors): approximately 1000 fold

CCC1(O)CC(OC2CC(N(C)C)C(OC3CC4OC5CC(=O)C(C)OC5OC4C(C)O3)C(C)O2)c2c(cc3c(c2O)C(=O)c2c(O)ccc(O)c2C3=O)C1C(=O)OC (stereo not shown) [Spartanamicin A]
Solubility (Solubility; 1-butanol, ethanol, methanol): Sparingly soluble
Solubility (Solubility; chloroform, carbon tetrachloride, toluene, ethyl acetate, DMF, DMSO, acetonitrile, acetone and glacial acetic acid): Soluble
Solubility (Solubility; [7]): Insoluble
solubility in methanol and ethanol (Solubility): not soluble
biological activity of TLC band [1]: biologically active

CCC1(O)CC(OC2CC(N(C)C)C(OC3CC4OC5CC(=O)C(C)OC5OC4C(C)O3)C(C)O2)c2c(cc3c(c2O)C(=O)c2c(O)ccc(O)c2C3=O)C1C(=O)OC (stereo not shown) [cinerubin B]
solubility in methanol and ethanol [2]: soluble
antifungal properties (fungi): not significantly antifungal

CCC1(O)CC(OC2CC(N(C)C)C(OC3CC(O)C(OC4CCC(=O)C(C)O4)C(C)O3)C(C)O2)c2c(cc3c(c2O)C(=O)c2c(O)ccc(O)c2C3=O)C1C(=O)OC (stereo not shown) [cinerubin A]
solubility in methanol and ethanol [2]: soluble
antifungal properties (fungi): not significantly antifungal

CC[C@@]1(O)C[C@H](O[C@H]2C[C@H](N(C)C)[C@H](O[C@H]3C[C@H](O)[C@H](O[C@H]4CCC(=O)[C@H](C)O4)[C@H](C)O3)[C@H](C)O2)c2c(cc3c(c2O)C(=O)c2c(O)ccc(O)c2C3=O)[C@H]1C(=O)OC [Spartanamicin B]
MIC (Pseudomonas aeruginosa): 100 µg/mL (≈ 121 µM)
MIC (C. neoformans-N-3): 0.6 µg/mL (≈ 0.725 µM)
MIC (C. quilliermondii): 0.8 µg/mL (≈ 0.966 µM)
MIC (Escherichia coli): not active
MIC (R. glutinis): 0.4 µg/mL (≈ 0.483 µM)
Solubility (Solubility; 1-butanol, ethanol, methanol, acetonitrile): Sparingly soluble
Solubility (Solubility; chloroform, carbon tetrachloride, toluene, ethyl acetate, DMF, DMSO, acetone and glacial acetic acid): Soluble
Solubility (Solubility; [7]): Insoluble
solubility in methanol and ethanol (Solubility): not soluble
MIC (A. niger): 0.6 µg/mL (≈ 0.725 µM)
MIC (Cladosporium species): 0.4 µg/mL (≈ 0.483 µM)
MIC (C. neoformans serotype-C): 0.8 µg/mL (≈ 0.966 µM)
MIC (C. neoformans-G-3): 1.0 µg/mL (≈ 1.21 µM)
MIC (Candida albicans): 0.2 µg/mL (≈ 0.242 µM)
MIC (C. neoformans serotype-D): 0.8 µg/mL (≈ 0.966 µM)
MIC [3]: 0.8 µg/mL (≈ 0.966 µM)
MIC (Rhodotorula rubra): 0.8 µg/mL (≈ 0.966 µM)
MIC (Citrobacter species): not active
MIC (Penicillium species): 0.2 µg/mL (≈ 0.242 µM)
MIC (Plebsiella pneumoniae): 100 µg/mL (≈ 121 µM)
MIC (A. flavus): 0.6 µg/mL (≈ 0.725 µM)
MIC (Aspergillus fumigatus): 0.4 µg/mL (≈ 0.483 µM)
stability in 2N HCl [4]: hydrolyses
MIC [5]: 0.8 µg/mL (≈ 0.966 µM)
MIC (S. aureus ATCC 25923): 0.8 µg/mL (≈ 0.966 µM)
MIC [6]: not active
biological activity of TLC band [1]: biologically active
